Structures are written as SMILES.

This is an account of results in patent EP0476408A1, “Chemical conjugation of morpholino anthracyclines to antibodies” (RESEARCH CORPORATION TECHNOLOGIES, INC., priority 1990, dated 1992).

For the data set, the system named is A-375 cells. As to the kind of experiment: Cytotoxicity of conjugate versus uncoupled drug, serial dilutions. In kind it is cell-based. The note with it: drug alone versus conjugate, Figure 6.

For `COc1cccc2c1C(=O)c1c(O)c3c(c(O)c1C2=O)C[C@@](O)(C(=O)CO)C[C@@H]3O[C@H]1C[C@H](N2CCOCC2)[C@H](O)[C@H](C)O1` [MRA, morpholino doxorubicin], the cytotoxicity entry is recorded as “Identical cytoxicity”.
